Experimental findings from ChEMBL document CHEMBL1201862, “PubChem BioAssay data set” (2004) are described below.

Test systems include T47D; DU-145; PC-3; MDA-MB-231; MDA-MB-435; RXF 631; LXFL 529; BT-549; 786-0.
Common to all, as to assay: NCI-60 cell line screen, 48 h

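Interpolation was linear, between the two tested concentrations surrounding the appropriate level; five concentrations were tested over 48 hours in 96-well plates. GI50 marks 50% less growth.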 Activity calls are given as the source filed them. No stated cut-off is given here; in the data, active = GI50 up to about 1.1 µM and inactive = higher.

As to `Cc1ccc(C(=O)N/N=C(\N=N\c2cccc(C)c2)c2ccc(N(CCC#N)CCC#N)cc2C)cc1`, the GI50 in the test with T47D is 44 µM (inactive); in the test with DU-145, 73.1 µM (inactive); in the test with PC-3 it was 58.3 µM (inactive); in the test with MDA-MB-231, > 100 µM (inactive); in the test with MDA-MB-435, 26.4 µM (inactive).
Regarding `COc1ccc(C(=O)Cc2cc(OC)ccc2OC)cc1`, the GI50 in the test on RXF 631 and with LXFL 529 was > 100 µM (inactive) each time.
In the case of `CCOC(=O)C1=NN(c2ccccc2)C2=CC(C)=NN(C)C(=S)N21`, the GI50 in the test with T47D, in the test on DU-145, in the test on PC-3, with BT-549, in the test on MDA-MB-231 and with MDA-MB-435 was > 100 µM (inactive) throughout.
`Cc1nnc(N)s/c1=N/O`: the GI50 in the test on T47D, in the test on DU-145, in the test on 786-0, in the test with PC-3, with BT-549 and with MDA-MB-231 was > 100 µM (inactive) each time. The GI50 with MDA-MB-435 was > 100 µM (inactive).
With `O=C(O)C12CC3CC(C1)C2C=C3P(=O)(O)O` (centres undefined), the GI50 with LXFL 529 is > 100 µM (inactive).
Regarding `Cc1cc(O)nc(NN2C(Cl)C(=O)C2c2c(O)ccc3ccccc23)n1` (centres undefined), the GI50 in the test with LXFL 529 was 15.2 µM (inactive).
In the case of `O=C(/N=N/c1cc(Cl)ccc1Cl)NNc1cc(Cl)ccc1Cl`, the GI50 in the test with T47D was 10.5 µM (inactive); in the test on DU-145, 30.3 µM (inactive); with PC-3, 10.9 µM (inactive); in the test with BT-549, > 10 µM (inactive); in the test on MDA-MB-231, 15.7 µM (inactive); with MDA-MB-435 it was 13.7 µM (inactive).
With `CC(C(=O)OCc1ccccc1)N(Cc1ccccc1)Cc1ccccc1` (centres undefined), the GI50 in the test with LXFL 529 is > 100 µM (inactive).
The same measure, in the same setting: the value for `CC(=O)NNc1nc(C)c(C(=O)NNC(=O)C(=O)Nc2c(C)cccc2C(C)(C)C)s1` was 69.8 µM (inactive).
As to `CCCCCCCCCC[C@@H](O)[C@@H]1CC[C@@H]([C@@H]2CC[C@@H]([C@@H](O)CCCCCCCCCCC(O)CC3=CC(C)OC3=O)O2)O1` (some centres undefined), the GI50 in the test on T47D is 0.984 µM (active); with DU-145, 3.98 µM (inactive); in the test on PC-3, 5.04 µM (inactive); with MDA-MB-231, 2.32 µM (inactive).
